Experimental data published in patent publication US10961202B2, “Bis-benzimidazole compounds and methods of using the same” (THE SCRIPPS RESEARCH INSTITUTE, priority 2017, dated 2021).

Test system: r(CUG)12-MBNL1 complex
Assay: Inhibition of the r(CUG)12-MBNL1 complex measured by TR-FRET
Format: biochemical
Settings: Table L; 80 nM RNA, 60 nM MBNL1-His6

IC50	Structure (SMILES)
80 µM	CC(=O)Nc1ccc2nc(-c3ccc(-c4nc5ccc(Nc6ncccn6)cc5[nH]4)cc3)[nH]c2c1 [Compound 7, N-(2-(4-(5-(pyrimidin-2-ylamino)-1H-benzo[d]imidazol-2-yl)phenyl)-1H-benzo[d]imidazol-5-yl)acetamide]
9.5 µM	C#CCCCCN(C)CCNC(=O)c1ccc2nc(-c3ccc(-c4nc5ccc(C(=O)NCCN(C)C)cc5[nH]4)cc3)[nH]c2c1 [Compound 73]
> 200 µM	O=C(O)c1ccc2nc(-c3ccc(-c4nc5ccc(C(=O)NCCN6CCCCC6)cc5[nH]4)cc3)[nH]c2c1 [Compound 43, 2-(4-(6-((2-(piperidin-1-yl)ethyl)carbamoyl)-1H-benzo[d]imidazol-2-yl)phenyl)-1H-benzo[d]imidazole-6-carboxylic Acid]
> 200 µM	Cn1c(-c2ccc(N)cc2)nc2cc(-c3ccc4nc(-c5ccc(N)cc5)n(C)c4c3)ccc21 [Compound 121, 1,3′-dimethyl-2,2′-bis(4-aminophenyl)-1H,3′H-5,5′-bibenzimidazole]
45 µM	CN(C)CCNC(=O)c1ccc2nc(-c3ccc(-c4nc5ccc(C#N)cc5[nH]4)cc3)[nH]c2c1 [Compound 15]
9.6 µM	CN(C)CCNC(=O)c1ccc2nc(-c3ccc(-c4nc5ccc(C(=O)NCCN)cc5[nH]4)cc3)[nH]c2c1 [Compound 29, N-(2-aminoethyl)-2-(4-(6-((2-(dimethylamino)ethyl)carbamoyl)-1H-benzo[d]imidazol-2-yl)phenyl)-1H-benzo[d]imidazole-6-carboxamide]
> 200 µM	CC(=O)Nc1ccc2nc(-c3ccc(-c4nc5ccc(N)cc5[nH]4)cc3)[nH]c2c1 [Compound 4, N-(2-(4-(5-amino-1H-benzo[d]imidazol-2-yl)phenyl)-1H-benzo[d]imidazol-5-yl)acetamide]
11 µM	c1cc2nc(-c3ccc(-c4nc5ccc(C6=NCCN6)cc5[nH]4)cc3)[nH]c2cc1C1=NCCN1 [Compound 14, 1,4-bis(6-(4,5-dihydro-1H-imidazol-2-yl)-1H-benzo[d]imidazol-2-yl)benzene]
> 200 µM	c1cn(-c2ccc(-c3nc4cc(-c5ccc6[nH]c(-c7ccc(-n8ccnc8)cc7)nc6c5)ccc4[nH]3)cc2)cn1 [Compound 107]
8.9 µM	CN1CCN(CCNC(=O)c2ccc(-c3nc4cc(-c5ccc6[nH]c(-c7ccc(C(=O)NCCN8CCN(C)CC8)cc7)nc6c5)ccc4[nH]3)cc2)CC1 [Compound 117]

Structure (SMILES)	IC50
O=[N+]([O-])c1ccc2nc(-c3ccc(-c4ccc(-c5nc6ccc([N+](=O)[O-])cc6[nH]5)cc4)cc3)[nH]c2c1 [Compound 79]	43.9 µM

Same assay, conditions: Table M; 80 nM RNA, 60 nM MBNL1-His6

IC50	Structure (SMILES)
> 200 µM	OCCCOc1ccc2nc(-c3ccc(-c4nc5ccc(OCCCO)cc5[nH]4)cc3)[nH]c2c1 [Compound 223, 3,3′-((1,4-phenylenebis(1H-benzo[d]imidazole-2,5-diyl))bis(oxy))bis(propan-1-ol)]
46.9 µM	CCN(CC)CCCOc1ccc2nc(-c3ccc(-c4nc5ccc(O)cc5[nH]4)cc3)[nH]c2c1 [Compound 188]
83.8 µM	COc1ccc2nc(-c3ccc(-c4nc5ccc(OCCCN(C)C)cc5[nH]4)cc3)[nH]c2c1 [Compound 245, 3-((2-(4-(6-methoxy-1H-benzo[d]imidazol-2-yl)phenyl)-1H-benzo[d]imidazol-6-yl)oxy)-N,N-dimethylpropan-1-amine]
18.3 µM	CCCCCOc1ccc(-c2nc3cc(-c4ccc5[nH]c(-c6ccc(C(=O)NCCN(C)C)cc6)nc5c4)ccc3[nH]2)cc1 [Compound 392]
63.4 µM	CN(C)CCCOc1ccc2nc(-c3ccc(-c4nc5ccc(OCCCCO)cc5[nH]4)cc3)[nH]c2c1 [Compound 224]
52.6 µM	CN(C)CCCOc1ccc2nc(-c3ccc(-c4nc5ccc(O)cc5[nH]4)cc3)[nH]c2c1 [Compound 249]
> 200 µM	CN(C)CCCOc1c(C(C)(C)C)cc(-c2nc3cc(-c4ccc5[nH]c(-c6cc(C(C)(C)C)c(O)c(C(C)(C)C)c6)nc5c4)ccc3[nH]2)cc1C(C)(C)C [Compound 372, 2,6-di-tert-butyl-4-(2′-(3,5-di-tert-butyl-4-(3-(dimethylamino)propoxy)phenyl)-1H,1′H-[5,5′-bibenzo[d]imidazol]-2-yl)phenol]
18.7 µM	CN(C)CCCCOc1ccc(-c2nc3cc(-c4ccc5[nH]c(-c6ccc(O)cc6)nc5c4)ccc3[nH]2)cc1 [Compound 363]
19 µM	CN(C)CCNC(=O)c1ccc(-c2nc3cc(-c4ccc5[nH]c(-c6ccc(OCCCC#N)cc6)nc5c4)ccc3[nH]2)cc1 [Compound 394]
49.1 µM	CN(CCNC(=O)c1ccc2nc(-c3ccc(-c4nc5ccc(C(=O)NCCN(C)C[C@H](O)[C@@H](O)[C@H](O)[C@H](O)CO)cc5[nH]4)cc3)[nH]c2c1)CC(O)C(O)C(O)C(O)CO (stereo in doubt) [Compound 175, 2,2′-(1,4-phenylene)bis(N-(2-(methyl((2S,3R,4R,5R)-2,3,4,5,6-pentahydroxyhexyl)amino)ethyl)-1H-benzo[d]imidazole-6-carboxamide)]
78.2 µM	CN(C)CCCOc1ccc2nc(-c3ccc(-c4nc5ccc(OCCCN=[N+]=[N-])cc5[nH]4)cc3)[nH]c2c1 [Compound 235, 3-((2-(4-(6-(3-azidopropoxy)-1H-benzo[d]imidazol-2-yl)phenyl)-1H-benzo[d]imidazol-6-yl)oxy)-N,N-dimethylpropan-1-amine]
14.7 µM	CN(C)CCNC(=O)c1ccc(-c2nc3cc(-c4ccc5[nH]c(-c6ccc(C(=O)NCCOCCOCCN=[N+]=[N-])cc6)nc5c4)ccc3[nH]2)cc1 [Compound 398]
1.2 µM	CN(C)CCNC(=O)c1ccc(-c2nc3ccc(-c4ccc5nc(-c6ccc(C(=O)NCC7CCCCN7C(=O)c7ccc(-c8nc9ccc(-c%10ccc%11nc(-c%12ccc(C(=O)NCCN(C)C)cc%12)[nH]c%11c%10)cc9[nH]8)cc7)cc6)[nH]c5c4)cc3[nH]2)cc1 (centres unmarked) [Compound 440]
29.2 µM	CN1CC[C@@H](Oc2ccc(-c3nc4cc(-c5ccc6[nH]c(-c7ccc(O[C@@H]8CCN(C)C8)cc7)nc6c5)ccc4[nH]3)cc2)C1 [Compound 373]
69.5 µM	CN(C)CC(C)(C)COc1ccc(-c2nc3cc(-c4ccc5[nH]c(-c6ccc(OCC(C)(C)CN(C)C)cc6)nc5c4)ccc3[nH]2)cc1 [Compound 376]
3.8 µM	CN(C)CCNC(=O)c1ccc(-c2nc3ccc(-c4ccc5nc(-c6ccc(C(=O)N[C@H]7CCN(C(=O)c8ccc(-c9nc%10ccc(-c%11ccc%12nc(-c%13ccc(C(=O)NCCN(C)C)cc%13)[nH]c%12c%11)cc%10[nH]9)cc8)C7)cc6)[nH]c5c4)cc3[nH]2)cc1 [Compound 455]
62.1 µM	NCc1ccc(Oc2ccc3nc(-c4ccc(-c5nc6ccc(Oc7ccc(CN)cc7)cc6[nH]5)cc4)[nH]c3c2)cc1 [Compound 236, (((2,2′-(1,4-phenylene)bis(1H-benzo[d]imidazole-6,2-diyl))bis(oxy))bis(4,1-phenylene))dimethanamine]
5.31 µM	CN(C)CCNC(=O)c1ccc(-c2nc3cc(-c4ccc5[nH]c(-c6ccc(C(=O)NCCCCCCCCCNC(=O)c7ccc(-c8nc9cc(-c%10ccc%11[nH]c(-c%12ccc(C(=O)NCCN(C)C)cc%12)nc%11c%10)ccc9[nH]8)cc7)cc6)nc5c4)ccc3[nH]2)cc1 [Compound 423]
3.11 µM	CN(C)CCCOc1cc2[nH]c(-c3cc(F)c(-c4nc5cc(F)c(OCCCN(C)C)cc5[nH]4)cc3F)nc2cc1F [Compound 331]
36.7 µM	CN(C)CCCCCOc1ccc2nc(-c3ccc(-c4nc5ccc(O)cc5[nH]4)cc3)[nH]c2c1 [Compound 193]
39 µM	C[C@@H](C(=O)N(C)[C@@H](C)C(=O)N(C)[C@@H](C)C(=O)N(C)[C@@H](C)C(=O)N(CCCCN(C)C(=O)c1ccc(-c2nc3cc(-c4ccc5[nH]c(-c6ccc(C(=O)NCCN(C)C)cc6)nc5c4)ccc3[nH]2)cc1)CC(N)=O)N(C)C(=O)c1ccc(-c2nc3cc(-c4ccc5[nH]c(-c6ccc(C(=O)NCCN(C)C)cc6)nc5c4)ccc3[nH]2)cc1 [Compound 416]
7.1 µM	CN(C)CCNC(=O)c1ccc(-c2nc3ccc(-c4ccc5nc(-c6ccc(C(=O)Nc7cccc(-c8cn(CCCNCC(=O)N9CCCC9C(=O)N9CCC[C@H]9C(=O)N(CCCn9cc(-c%10cccc(NC(=O)c%11ccc(-c%12nc%13ccc(-c%14ccc%15nc(-c%16ccc(C(=O)NCCN(C)C)cc%16)[nH]c%15c%14)cc%13[nH]%12)cc%11)c%10)nn9)CC(N)=O)nn8)c7)cc6)[nH]c5c4)cc3[nH]2)cc1 (some centres unmarked) [Compound 446]
> 200 µM	CC(=O)NCCN(C)CCNC(=O)c1ccc(-c2ccc3[nH]c(-c4ccc(OCCCN(C)C)cc4)nc3c2)cc1 [Compound 396]
3.4 µM	CN(C)CCNC(=O)c1ccc(-c2nc3ccc(-c4ccc5nc(-c6ccc(C(=O)N[C@@H]7CCN(C(=O)c8ccc(-c9nc%10ccc(-c%11ccc%12nc(-c%13ccc(C(=O)NCCN(C)C)cc%13)[nH]c%12c%11)cc%10[nH]9)cc8)C7)cc6)[nH]c5c4)cc3[nH]2)cc1 [Compound 454]
9.64 µM	Cc1cc(-c2nc3cc(-c4ccc5[nH]c(-c6cc(C)c(OCCCN(C)C)c(C)c6)nc5c4)ccc3[nH]2)cc(C)c1O [Compound 361]
8.16 µM	CN(C)CCNC(=O)c1ccc(-c2nc3cc(-c4ccc5[nH]c(-c6ccc(C(=O)NCCCCCNC(=O)c7ccc(-c8nc9cc(-c%10ccc%11[nH]c(-c%12ccc(C(=O)NCCN(C)C)cc%12)nc%11c%10)ccc9[nH]8)cc7)cc6)nc5c4)ccc3[nH]2)cc1 [Compound 414]
112 µM	CN(C)CCN(C)CCOc1ccc2nc(-c3ccc(-c4nc5ccc(OCCN(C)CCN(C)C)cc5[nH]4)cc3)[nH]c2c1 [Compound 211]
2.6 µM	CN(C)CCNC(=O)c1ccc(-c2nc3ccc(-c4ccc5nc(-c6ccc(C(=O)Nc7cccc(-c8cn(CCCNCC(=O)N9CCC[C@H]9C(=O)N9CCC[C@H]9C(=O)N9CCCC9C(=O)N9CCC[C@H]9C(=O)N(CCCn9cc(-c%10cccc(NC(=O)c%11ccc(-c%12nc%13ccc(-c%14ccc%15nc(-c%16ccc(C(=O)NCCN(C)C)cc%16)[nH]c%15c%14)cc%13[nH]%12)cc%11)c%10)nn9)CC(N)=O)nn8)c7)cc6)[nH]c5c4)cc3[nH]2)cc1 (some centres unmarked) [Compound 436]

Structure (SMILES)	IC50
COc1ccc2nc(-c3ccc(-c4nc5ccc(OC)cc5[nH]4)cc3)[nH]c2c1 [Compound 189, 1,4-Bis(6-methoxy-1H-benzo[d]imidazol-2-yl)benzene]	> 200 µM
CN(C)Cc1cn(CCOc2ccc3nc(-c4ccc(-c5nc6ccc(OCCn7cc(CN(C)C)nn7)cc6[nH]5)cc4)[nH]c3c2)nn1 [Compound 227]	120 µM
